Reference: US20120028897A1, “METHODS AND COMPOSITIONS FOR THE TREATMENT OF FLUID RETENTION DISORDERS” (priority 2008, published 2012)

What was measured:
anesthetized rats = test: Renal sodium excretion during and after iv peptide infusion in anesthetized rats; type: in vivo, rat
Protocol: Rats were not fasted prior to clearance experiments and ranged in weight from 250-340 g at the time of study. Anesthesia was induced with an intraperitoneal injection of pentobarbital sodium (55 mg/kg BW) and maintained at a surgical plane by intermittent intravenous supplementation. Core temperature was maintained at 37° C. by a servo-controlled, heated operating table. Animals breathed spontaneously through a PE240 cannula inserted into the trachea. A jugular vein was catheterized with PE50 cannula tubing for intravenous infusion of isotonic saline containing FITC-labeled inulin (0.4% W/V, Sigma, St Louis Mo.) and two PE10 cannulae, one for supplemental anesthetic and the other for peptide infusions (described below in the experimental protocol section). The ureters were exposed through a midline ventral incision and cannulated with PE10 tubing about one cm from each kidney. Urine was collected over 20 min periods and the volume estimated by weight. A femoral artery was cannulated with PE50 tubing for continuous measurement of arterial blood pressure and intermittent blood samples (50 μl), taken at the mid point of each urine collection.
All rats received a continuous intravenous infusion (10 μl/min/100 g BW) of isotonic saline containing FITC-labeled inulin for measurement of inulin clearance. Uncongugated FITC label and small inulin polymers were removed from the inulin solution by overnight dialysis against isotonic saline (SpectraPor 6 dialysis membrane, 1 kDa cutoff-limit, Spectrum Laboratories, Rancho Domingo, Calif.). Undissolved particulates were removed from the solution by filtration through a […] filter before each experiment (Steriflip, Millipore Inc. Billerica, Mass.). At least one hr was allowed for equilibration before the start of urine collections, at which point plasma inulin concentration had stabilized at an average value of 30±3 μg/ml.
Arterial blood pressure was measured with a pressure transducer connected to a cardiovascular analyzer (Model 50110, Stoelting Instruments Wood Dale, Ill.). Left renal blood flow was measured in some rats with a flow probe positioned on the left renal artery and connected to a blood flow monitor (model 1 PRB probe and model T420 monitor, Transonic Systems Inc. Ithaca N.Y.). Arterial pressure, heart rate, and renal blood flow were digitized with an A/D converter (Keithley instruments, Cleveland, Ohio Model KUSB 3100) for display and storage on a Windows-based personal computer using open layers data acquisition software (Dtx_Ez, Data Translation Inc, Marlboro, Mass.). Sodium and potassium concentrations in plasma and urine were measured by flame photometry (Model 943, Instrumentation Laboratory Co., Lexington Mass.). Glomerular filtration rate (GFR) was measured as the renal clearance rate of FITC-labeled inulin
After post-surgical equilibration (−60 min) and three 20 min control clearance periods, huUgnA or B was infused into the jugular vein at 10 μl/min over a 60 min period, followed by a return to isotonic saline for the remainder of the experiment. The infused doses of huUgnA were 12, 25, 50, 100, or 200 nmol/kg BW in a total of 38 rats; huUgnB doses were 9, 18, 35, 70, and 140 nmol/kg BW in 35 rats. A UgnA mimetic, E. coli STh (ST-core), was infused into a third group of 32 rats at doses of 17, 32, 66, 133, and 266 nmol/kg. Renal excretory responses to these infusions were slow to develop and long lasting, so clearance periods were continued for 2-3 hr after the termination of the peptide infusion. This protracted time course limited protocols to one dose of one peptide in each rat. A control group of 10 rats received isotonic saline at 10 μl/min in place of the peptide infusion, but was otherwise treated in the same way as the experimental groups.
The effects of combined infusions of huUgnA and B were investigated in two groups of rats that received 35 nmol/kg of huUgnB together with either 25 nmol/kg (n=5) or 100 nmol/kg of huUgnA (n=5). […]

[1] = Interconversion of huUgn A and B isomers in vitro (storage at −80° C.; pH 4, 50° C.); type: physicochemical; settings: LC-MS at periodic intervals
Protocol: FIG. 2C is a graph showing the amount of “UgnA like” activity as a function of time in cells treated with either huUgnA and huUgnB. The A and B isomers (filled and open circles, respectively) interconvert slowly in vitro. Peptides were incubated at 50° C. in 1 mM citrate buffer (pH 4) for either 0, 24, or 48 hr. Samples were then diluted into bioassay medium, the pH was adjusted to 7.0, and activity was measured in the T84 cell bioassay. A huUgnA standard curve was generated in the same assay, and cyclic GMP responses were converted to recoveries of “UgnA-like” peptide by interpolation on this standard curve.
HPLC analysis and mass spectroscopy of Ugn isomers. The integrity and purity of huUgnA and B isomer preparations were confirmed by liquid chromatography/mass spectroscopy (LC-MS) analysis. The two Ugn isomers have different retention times on a reverse phase HPLC column (FIG. 1, dashed trace; huUgnA elutes ˜0.35 minutes before huUgnB). Separations were performed on a Hypersil Gold AQ 2.1×50 mm column from Thermo Fisher Scientific Inc (Waltham, Mass.) equilibrated in 98% buffer A (0.1% formic acid), 2% buffer B (85:10:5 Acetonitrile/Isopropyl Alcohol/5 mM NH4OAc pH 5.8) with a flow rate of 0.4 ml/min on an Acquity HPLC system. […]

[2] = huUgnA 25 nmol, Post-infuse, *** p<0.005 vs time control

CC(C)C[C@H](NC(=O)[C@@H]1CSSC[C@@H]2NC(=O)[C@H](CC(C)C)NC(=O)[C@H](CCC(=O)O)NC(=O)[C@@H](NC(=O)[C@H](CC(=O)O)NC(=O)[C@H](CC(=O)O)NC(=O)[C@@H](N)CC(N)=O)CSSC[C@H](NC(=O)[C@H](C)NC(=O)[C@H](C(C)C)NC(=O)[C@H](CC(N)=O)NC(=O)[C@H](C(C)C)NC2=O)C(=O)N[C@@H]([C@@H](C)O)C(=O)NCC(=O)N1)C(=O)O (single isomer, unassigned) [huUgnA, Asn Asp Asp Cys Glu Leu Cys Val Asn Val Ala Cys Thr Gly Cys Leu, reference compound]
single effective dose, cumulative sodium excretion (anesthetized rats; FIG. 6B, lower or higher doses not different from control): 25 nmol/kg | FENa (fractional sodium excretion) (anesthetized rats; huUgnA 12 nmol, Infuse): 0.10 ± 0.02 % of filtered | UNaV (sodium excretion) (anesthetized rats; huUgnA 12 nmol, Infusion): 118.1 ± 25 nEq/min/g KW | FENa (fractional sodium excretion) (anesthetized rats; huUgnA 12 nmol, Post-infuse): 0.17 ± 0.02 % of filtered | UNaV (sodium excretion) (anesthetized rats; huUgnA 12 nmol, Post-infuse): 222 ± 33 nEq/min/g KW | FENa (fractional sodium excretion) (anesthetized rats; huUgnA 12 nmol, Pre-infuse): 0.08 ± 0.02 % of filtered | UNaV (sodium excretion) (anesthetized rats; huUgnA 12 nmol, Pre-infuse): 85 ± 20 nEq/min/g KW | FENa (fractional sodium excretion) (anesthetized rats; huUgnA 25 nmol, Infuse, * p<0.05 vs time control): 0.27 ± 0.08* % of filtered | UNaV (sodium excretion) (anesthetized rats; huUgnA 25 nmol, Infusion, * p<0.05 vs time control): 291.7 ± 77* nEq/min/g KW | FENa (fractional sodium excretion) (anesthetized rats; [2]): 0.68 ± 0.08*** % of filtered | UNaV (sodium excretion) (anesthetized rats; [2]): 664 ± 75*** nEq/min/g KW | FENa (fractional sodium excretion) (anesthetized rats; huUgnA 25 nmol, Pre-infuse): 0.09 ± 0.01 % of filtered | UNaV (sodium excretion) (anesthetized rats; huUgnA 25 nmol, Pre-infuse): 93 ± 7 nEq/min/g KW | FENa (fractional sodium excretion) (anesthetized rats; huUgnA 50 nmol, Infuse): 0.10 ± 0.01 % of filtered | UNaV (sodium excretion) (anesthetized rats; huUgnA 50 nmol, Infusion): 117.5 ± 22 nEq/min/g KW | FENa (fractional sodium excretion) (anesthetized rats; huUgnA 50 nmol, Post-infuse): 0.28 ± 0.05 % of filtered | UNaV (sodium excretion) (anesthetized rats; huUgnA 50 nmol, Post-infuse, * p<0.05 vs time control): 342 ± 63* nEq/min/g KW | FENa (fractional sodium excretion) (anesthetized rats; huUgnA 50 nmol, Pre-infuse): 0.06 ± 0.01 % of filtered | UNaV (sodium excretion) (anesthetized rats; huUgnA 50 nmol, Pre-infuse): 73 ± 10 nEq/min/g KW | FENa (fractional sodium excretion) (anesthetized rats; huUgnA 100 nmol, Infuse): 0.12 ± 0.03 % of filtered | UNaV (sodium excretion) (anesthetized rats; huUgnA 100 nmol, Infusion): 130.8 ± 32 nEq/min/g KW | FENa (fractional sodium excretion) (anesthetized rats; huUgnA 100 nmol, Post-infuse): 0.27 ± 0.06 % of filtered | UNaV (sodium excretion) (anesthetized rats; huUgnA 100 nmol, Post-infuse): 328 ± 80 nEq/min/g KW | FENa (fractional sodium excretion) (anesthetized rats; huUgnA 100 nmol, Pre-infuse): 0.06 ± 0.01 % of filtered | UNaV (sodium excretion) (anesthetized rats; huUgnA 100 nmol, Pre-infuse): 66 ± 9 nEq/min/g KW | FENa (fractional sodium excretion) (anesthetized rats; huUgnA 200 nmol, Infuse): 0.11 ± 0.02 % of filtered | UNaV (sodium excretion) (anesthetized rats; huUgnA 200 nmol, Infusion): 120.6 ± 18 nEq/min/g KW | FENa (fractional sodium excretion) (anesthetized rats; huUgnA 200 nmol, Post-infuse): 0.29 ± 0.03 % of filtered | UNaV (sodium excretion) (anesthetized rats; huUgnA 200 nmol, Post-infuse): 342 ± 51 nEq/min/g KW | FENa (fractional sodium excretion) (anesthetized rats; huUgnA 200 nmol, Pre-infuse): 0.06 ± 0.01 % of filtered | UNaV (sodium excretion) (anesthetized rats; huUgnA 200 nmol, Pre-infuse): 67 ± 1 nEq/min/g KW | UNaV time course, ANOVA vs control (anesthetized rats; infusion period (p<0.05) and post infusion period (p<0.001)): significant increase | shape of natriuretic dose-response relationship (anesthetized rats; rat, in vivo): bell-shaped | conversion from one isoform to the other during storage [1]: did not occur
